For one test, the target named is T1, HIS-TGFβR1 T204D (Homo sapiens, UniProt P36897, T204D).
T1 sequence (P36897 34-503 T204D): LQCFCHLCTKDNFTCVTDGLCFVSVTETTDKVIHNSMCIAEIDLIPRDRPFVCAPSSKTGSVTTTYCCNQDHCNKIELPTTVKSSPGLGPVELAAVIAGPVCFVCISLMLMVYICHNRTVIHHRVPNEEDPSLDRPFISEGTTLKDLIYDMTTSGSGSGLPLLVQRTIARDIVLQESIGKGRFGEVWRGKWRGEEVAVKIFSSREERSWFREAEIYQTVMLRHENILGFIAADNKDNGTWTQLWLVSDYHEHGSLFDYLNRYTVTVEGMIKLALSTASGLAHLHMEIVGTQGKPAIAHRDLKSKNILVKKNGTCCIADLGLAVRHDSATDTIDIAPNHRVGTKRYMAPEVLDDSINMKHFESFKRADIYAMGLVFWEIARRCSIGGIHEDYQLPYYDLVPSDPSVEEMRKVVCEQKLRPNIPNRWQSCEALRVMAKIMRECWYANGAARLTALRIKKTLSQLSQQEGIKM
The test is described as follows: HTRF probe-displacement assay, HIS-TGFβR1 T204D. Format: binding. To be noted: read-out: TGFβR1 (μM) IC50.

The target in another test is HIS-TGFβR2 WT (Homo sapiens, UniProt P37173). Nature of the test: HTRF probe-displacement assay, HIS-TGFβR2 WT. Format: binding.
HIS-TGFβR2 WT, sequence (P37173 23-567): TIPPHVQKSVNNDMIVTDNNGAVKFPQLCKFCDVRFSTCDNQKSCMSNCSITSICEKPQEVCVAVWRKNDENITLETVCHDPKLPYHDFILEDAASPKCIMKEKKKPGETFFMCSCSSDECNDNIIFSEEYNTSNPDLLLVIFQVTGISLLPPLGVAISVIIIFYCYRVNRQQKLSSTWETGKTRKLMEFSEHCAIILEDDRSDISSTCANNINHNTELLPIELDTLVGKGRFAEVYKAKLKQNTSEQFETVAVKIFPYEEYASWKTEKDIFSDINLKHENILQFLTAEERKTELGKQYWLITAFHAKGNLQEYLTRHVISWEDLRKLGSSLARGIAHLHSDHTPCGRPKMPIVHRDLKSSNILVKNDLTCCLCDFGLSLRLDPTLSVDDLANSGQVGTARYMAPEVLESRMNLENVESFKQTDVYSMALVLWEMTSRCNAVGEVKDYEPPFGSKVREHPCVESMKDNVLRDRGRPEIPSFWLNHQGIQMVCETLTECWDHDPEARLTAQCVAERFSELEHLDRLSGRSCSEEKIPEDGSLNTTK

Here are results for 28 molecules from patent publication US9708316B2 (BRISTOL-MYERS SQUIBB COMPANY, priority 2014, dated 2017).

For orientation: IC50 means the point on the concentration scale where inhibition reaches its midpoint. In the case of `CC(=O)Nc1cc(-c2[nH]c3c(C)ccnc3c2-c2nc(C(F)(F)F)cs2)ccn1` [Example 212, N-(4-(7-Methyl-3-(4-(trifluoromethyl)thiazol-2-yl)-1H-pyrrolo[3,2-b]pyridin-2-yl)pyridin-2-yl)acetamide], the concentration for half-maximal inhibition (IC50) was found to be 0.0005 µM on HIS-TGFβR1 T204D and 8.82 µM at HIS-TGFβR2 WT.

Take `COc1ccc(-c2c(-c3ccnc(NC(C)=O)c3)[nH]c3c(C(F)F)ccnc23)cn1` [Example 213, N-(4-(7-(Difluoromethyl)-3-(6-methoxypyridin-3-yl)-1H-pyrrolo[3,2-b]pyridin-2-yl)pyridin-2-yl)acetamide]: the half-maximal inhibitory concentration (IC50) came out at 0.0061 µM on HIS-TGFβR1 T204D and 0.118 µM on HIS-TGFβR2 WT.

Consider `CC(=O)Nc1cc(-c2[nH]c3c(CO)ccnc3c2-c2nc(C)cs2)ccn1` [Example 214, N-(4-(7-(hydroxymethyl)-3-(4-methylthiazol-2-yl)-1H-pyrrolo[3,2-b]pyridin-2-yl)pyridin-2-yl)acetamide], for which the half-inhibitory concentration (IC50) came out at 0.0014 µM at HIS-TGFβR1 T204D and 0.173 µM at HIS-TGFβR2 WT.

Take `COc1ccc(-c2c(-c3ccnc(NC(C)=O)c3)[nH]c3c(C)ccnc23)cn1` [Example 215, N-(4-(3-(6-Methoxypyridin-3-yl)-7-methyl-1H-pyrrolo[3,2-b]pyridin-2-yl)pyridin-2-yl)acetamide]: the IC50 on HIS-TGFβR1 T204D was 0.0885 µM; at HIS-TGFβR2 WT, 0.999 µM.

Regarding `CC(=O)Nc1cc(-c2[nH]c3c(C)ccnc3c2-c2cccc(C(F)F)n2)ccn1` [Example 216, N-(4-(3-(6-(Difluoromethyl)pyridin-2-yl)-7-methyl-1H-pyrrolo[3,2-b]pyridin-2-yl)pyridin-2-yl)acetamide], the results for the IC50 at HIS-TGFβR1 T204D and on HIS-TGFβR2 WT were 0.0013 µM and 3.77 µM, respectively.

Turning to `COc1ccc(-c2c(-c3ccnc(NC(C)=O)c3)[nH]c3c(C)ccnc23)nc1` [Example 217, N-(4-(3-(5-Methoxypyridin-2-yl)-7-methyl-1H-pyrrolo[3,2-b]pyridin-2-yl)pyridin-2-yl)acetamide], the 50% inhibitory concentration (IC50) at HIS-TGFβR1 T204D and at HIS-TGFβR2 WT was over 15 µM in each case.

For the molecule `CC(=O)Nc1cc(-c2[nH]c3c(C)ccnc3c2-c2ncc(C)s2)ccn1` [Example 218, N-(4-(7-Methyl-3-(5-methylthiazol-2-yl)-1H-pyrrolo[3,2-b]pyridin-2-yl)pyridin-2-yl)acetamide], the IC50 on HIS-TGFβR1 T204D stood at 0.0017 µM; on HIS-TGFβR2 WT, 0.594 µM.

Consider `CC(=O)Nc1cc(-c2[nH]c3c(C)ccnc3c2-c2nc(C(F)F)cs2)ccn1` [Example 220, N-(4-(3-(4-(Difluoromethyl)thiazol-2-yl)-7-methyl-1H-pyrrolo[3,2-b]pyridin-2-yl)pyridin-2-yl)acetamide], for which the half-maximal inhibitory concentration (IC50) on HIS-TGFβR1 T204D stood at 0.0005 µM; on HIS-TGFβR2 WT, 1.38 µM.

Take `CC(=O)Nc1cc(-c2[nH]c3c(C)ccnc3c2-c2csc(C)n2)ccn1` [Example 221, N-(4-(7-Methyl-3-(2-methylthiazol-4-yl)-1H-pyrrolo[3,2-b]pyridin-2-yl)pyridin-2-yl)acetamide]: the IC50 on HIS-TGFβR1 T204D came out at 0.0037 µM; at HIS-TGFβR2 WT, 1.36 µM.

With `CC(=O)Nc1cc(-c2[nH]c3c(C(F)F)ccnc3c2-c2nc(C)cs2)ccn1` [Example 222, N-(4-(7-(Difluoromethyl)-3-(4-methylthiazol-2-yl)-1H-pyrrolo[3,2-b]pyridin-2-yl)pyridin-2-yl)acetamide], the half-inhibitory concentration (IC50) on HIS-TGFβR1 T204D was determined as 0.0015 µM; on HIS-TGFβR2 WT, 0.129 µM.

Take `CC(=O)Nc1cc(-c2[nH]c3cc(C)cnc3c2-c2nc(C)cs2)ccn1` [Example 223, N-(4-(6-Methyl-3-(4-methylthiazol-2-yl)-1H-pyrrolo[3,2-b]pyridin-2-yl)pyridin-2-yl)acetamide]: the IC50 at HIS-TGFβR1 T204D was found to be 0.0008 µM; on HIS-TGFβR2 WT, 0.043 µM.

`CC(=O)Nc1cc(-c2[nH]c3cc(C)cnc3c2-c2nc(C#N)cs2)ccn1` [Example 224, N-(4-(3-(4-Cyanothiazol-2-yl)-6-methyl-1H-pyrrolo[3,2-b]pyridin-2-yl)pyridin-2-yl)acetamide]: the results for the concentration for half-maximal inhibition (IC50) at HIS-TGFβR1 T204D and at HIS-TGFβR2 WT were 0.0012 µM and 0.544 µM, respectively.

For the molecule `CC(=O)Nc1cc(-c2[nH]c3cc(F)cnc3c2-c2nc(C)cs2)ccn1` [Example 225, N-(4-(6-Fluoro-3-(4-methylthiazol-2-yl)-1H-pyrrolo[3,2-b]pyridin-2-yl)pyridin-2-yl)acetamide], the values for the IC50 on HIS-TGFβR1 T204D and on HIS-TGFβR2 WT were 0.0007 µM and 0.057 µM, respectively.

For the molecule `CC(=O)Nc1cc(-c2[nH]c3cc(F)cnc3c2-c2nc(C#N)cs2)ccn1` [Example 226, N-(4-(3-(4-Cyanothiazol-2-yl)-6-fluoro-1H-pyrrolo[3,2-b]pyridin-2-yl)pyridin-2-yl)acetamide], the IC50 on HIS-TGFβR1 T204D is 0.0041 µM; at HIS-TGFβR2 WT it was 1.55 µM.

Take `COc1cnc2c(-c3nc(C(F)F)cs3)c(-c3ccnc(NC(C)=O)c3)[nH]c2c1` [Example 227, N-(4-(3-(4-(Difluoromethyl)thiazol-2-yl)-6-methoxy-1H-pyrrolo[3,2-b]pyridin-2-yl)pyridin-2-yl)acetamide]: the values for the IC50 at HIS-TGFβR1 T204D and on HIS-TGFβR2 WT were 0.0006 µM and 0.725 µM, respectively.

As to `COc1cnc2c(-c3nc(C(F)(F)F)cs3)c(-c3ccnc(NC(C)=O)c3)[nH]c2c1` [Example 229, N-(4-(6-Methoxy-3-(4-(trifluoromethyl)thiazol-2-yl)-1H-pyrrolo[3,2-b]pyridin-2-yl)pyridin-2-yl)acetamide], the half-maximal inhibitory concentration (IC50) at HIS-TGFβR1 T204D was 0.0014 µM; at HIS-TGFβR2 WT it was 10.9 µM.

Turning to `COc1ccc(-c2c(-c3ccnc(NC(C)=O)c3)[nH]c3c(C(C)O)ccnc23)cn1` (centres unmarked) [Example 230, N-(4-(7-(1-Hydroxyethyl)-3-(6-methoxypyridin-3-yl)-1H-pyrrolo[3,2-b]pyridin-2-yl)pyridin-2-yl)acetamide], the IC50 at HIS-TGFβR1 T204D worked out at 0.0024 µM; on HIS-TGFβR2 WT, 0.037 µM.

Take `CC(=O)Nc1cc(-c2[nH]c3c(C(C)O)ccnc3c2-c2nc(C(F)(F)F)cs2)ccn1` (centres unmarked) [Example 231, N-(4-(7-(1-Hydroxyethyl)-3-(4-(trifluoromethyl)thiazol-2-yl)-1H-pyrrolo[3,2-b]pyridin-2-yl)pyridin-2-yl)acetamide]: the results for the IC50 at HIS-TGFβR1 T204D and at HIS-TGFβR2 WT were 0.001 µM and 9.11 µM, respectively.

With `CC(=O)Nc1cc(-c2[nH]c3c(C(C)O)ccnc3c2-c2nc(C)cs2)ccn1` (centres unmarked) [Example 232, N-(4-(7-(1-Hydroxyethyl)-3-(4-methylthiazol-2-yl)-1H-pyrrolo[3,2-b]pyridin-2-yl)pyridin-2-yl)acetamide], the half-inhibitory concentration (IC50) at HIS-TGFβR1 T204D stood at 0.003 µM; at HIS-TGFβR2 WT it was 0.115 µM.

`CC(=O)Nc1cc(-c2[nH]c3c(C(C)F)ccnc3c2-c2cccc(C(F)F)n2)ccn1` (centres unmarked) [Example 233, N-(4-(3-(6-(Difluoromethyl)pyridin-2-yl)-7-(1-fluoroethyl)-1H-pyrrolo[3,2-b]pyridin-2-yl)pyridin-2-yl)acetamide]: the half-inhibitory concentration (IC50) on HIS-TGFβR1 T204D was determined as 0.0014 µM; on HIS-TGFβR2 WT, 4.06 µM.

For `COc1ccnc2c(-c3nc(C)cs3)c(-c3ccnc(NC(C)=O)c3)[nH]c12` [Example 234, N-(4-(7-Methoxy-3-(4-methylthiazol-2-yl)-1H-pyrrolo[3,2-b]pyridin-2-yl)pyridin-2-yl)acetamide], the 50% inhibitory concentration (IC50) was determined as 0.0016 µM at HIS-TGFβR1 T204D and 0.572 µM at HIS-TGFβR2 WT.

As for `COc1ccc(-c2c(-c3ccnc(NC(=O)CN4CCN(CCO)CC4)c3)[nH]c3cc(Cl)cnc23)cn1` [Example 235, N-(4-(6-Chloro-3-(6-methoxypyridin-3-yl)-1H-pyrrolo[3,2-b]pyridin-2-yl)pyridin-2-yl)-2-(4-(2-hydroxyethyl)piperazin-1-yl)acetamide], the concentration for half-maximal inhibition (IC50) on HIS-TGFβR1 T204D worked out at 0.001 µM; at HIS-TGFβR2 WT it was 0.176 µM.

For `COc1ccc(-c2c(-c3ccnc(NC(C)=O)c3)[nH]c3cccnc23)nc1C` [Example 237, N-(4-(3-(5-Methoxy-6-methylpyridin-2-yl)-1H-pyrrolo[3,2-b]pyridin-2-yl)pyridin-2-yl)acetamide], the IC50 is 0.111 µM at HIS-TGFβR1 T204D and over 15 µM on HIS-TGFβR2 WT.

On to `COc1ccc(-c2c(-c3ccnc(NC(=O)CN4CCN(C)CC4)c3)[nH]c3cc(Cl)cnc23)nc1C` [Example 238, N-(4-(6-Chloro-3-(5-methoxy-6-methylpyridin-2-yl)-1H-pyrrolo[3,2-b]pyridin-2-yl)pyridin-2-yl)-2-(4-methylpiperazin-1-yl)acetamide], for which the half-maximal inhibitory concentration (IC50) on HIS-TGFβR1 T204D was 0.0882 µM; at HIS-TGFβR2 WT it was over 15 µM.

Consider `COc1cnc(-c2c(-c3ccnc(NC(C)=O)c3)[nH]c3cc(Cl)cnc23)s1` [Example 239, N-(4-(6-Chloro-3-(5-methoxythiazol-2-yl)-1H-pyrrolo[3,2-b]pyridin-2-yl)pyridin-2-yl)acetamide], for which the IC50 on HIS-TGFβR1 T204D was found to be 0.0746 µM; at HIS-TGFβR2 WT, 3.28 µM.

For `CC(=O)Nc1cc(-c2[nH]c3c(C#N)ccnc3c2-c2nc(C)cs2)ccn1` [Example 240, N-(4-(7-Cyano-3-(4-methylthiazol-2-yl)-1H-pyrrolo[3,2-b]pyridin-2-yl)pyridin-2-yl)acetamide], the values for the IC50 on HIS-TGFβR1 T204D and at HIS-TGFβR2 WT were 0.594 µM and over 15 µM, respectively.

With `O=C(CNCCN1CCOCC1)Nc1cc(-c2[nH]c3cc(Cl)cnc3c2-c2ccc(F)cn2)ccn1` [Example 241, N-{4-[6-Chloro-3-(5-fluoropyridin-2-yl)-1H-pyrrolo[3,2-b]pyridin-2-yl]pyridin-2-yl}-2-{[2-(morpholin-4-yl)ethyl]amino}acetamide], the IC50 on HIS-TGFβR1 T204D amounted to 0.004 µM; on HIS-TGFβR2 WT, 3.67 µM.

As for `CCNc1cc(-c2[nH]c3cc(Cl)cnc3c2-c2ccc(OC)cn2)ccn1` [Example 242, 4-(6-Chloro-3-(5-methoxypyridin-2-yl)-1H-pyrrolo[3,2-b]pyridin-2-yl)-N-ethylpyridin-2-amine], the IC50 at HIS-TGFβR1 T204D is 0.033 µM; on HIS-TGFβR2 WT, at least 15 µM.
